Measured values reported in patent US4906663A, “6-fluoroprostaglandins” (Asahi Glass Company, Ltd., priority 1987, dated 1990).
In brackets after ≈: the same amount, converted by molar mass. Read-outs that look alike come from different tables or passages of the source.

Columns and labels:
platelet aggregation [1] = experiment: In vitro inhibition of ADP (1 μM)-induced platelet aggregation (turbidimetric method of Born, platelet-rich plasma); assay type: cell-based, guinea-pigs of Hartley strain; details: guinea-pig PRP, preincubated 37° C. for 10 minutes; for IC50: Cavia porcellus, Platelet
Description: (§1) Platelet aggregation study was carried out by a tarbidimetric method of Born (G. V. R. Born; Nature, 194, 927, 1962) using an aggregometer. Citrated blood obtained from guinea-pigs of Hartley strain was centrifuged at 120 g for 10 minutes and the supernatant, Platelet-rich plasma (PRP), was separated. In in vitro experiments, PRP was preincubated with test compounds at 37° C. for 10 minutes and then aggregation was induced by adding ADP (1 μM). Extent of aggregation was estimated with maximum changes of light transmittance within 5 minutes after adding ADP. Inhibitory potencies of compounds were expressed with the concentration showing 50% inhibition of platelet aggregation (IC50). In ex vivo experiments, compounds were orally given to guinea-pigs. Blood was taken 5 hours after the administration of compounds, and platelet aggregation study was performed as described in in vitro experiments. Potencies of compnds was expressed with minimum dose showing significant inhibition (MED).

platelet aggregation [2] = experiment: Ex vivo inhibition of ADP-induced platelet aggregation 5 hours after oral administration; assay type: in vivo; details: Cavia porcellus, blood taken 5 hours after administration, guinea-pigs, read-out: Ex vivo MED (minimum dose showing significant inhibition of platelet aggregation)
Description: as §1

[3] = tested on: depression in amplitude of ST-segment on ECG (vasopressin); experiment: Antianginal effect: vasopressin-induced depression in amplitude of ST-segment on ECG; assay type: in vivo, male rats of Donryu strain; details: Rattus norvegicus, anesthetized rats
Description: Antianginal effect of compounds was evaluated in male rats of Donryu strain according to Hatano et al. (N. Hatano et al.; Pharmacometrics, 19, 311, 1980) Vasopressin (0.2 IU/kg) was injected into femoral vein of anesthetized rats, and the depression in amplitude of ST-segment on ECG was measured at 30 second-intervals for 5 minutes after the vasopressin injection. Test compounds were intravenously injected 2 minutes before or orally given 30 minutes before the vasopressin injection. Data were analysed with two dimension analysis between the control and treated groups, and potencies of the compounds were expressed by MED.

[4] = tested on: gastric ulcer (HCl-ethanol induced); experiment: Inhibitory effect on gastric ulcer induced by HCl-ethanol (lesion index); assay type: in vivo, rats (male, Wister strain); details: Rattus norvegicus; oral, 30 minutes before 0.4N HCl-50% ethanol (1 ml); over night-fasted rats; read-out: ED50 (dose required for 50% inhibition of lesion index)
Description: Gastric ulcer was induced by an oral administration of 0.4N HCl-50% ethanol (1 ml) to over night-fasted rats (male, Wister strain). One hour after HCl-ethanol administration, rats were sacrificed and their stomachs were isolated. Isolated stomachs were inflated with saline and fixed with 5% formalin. After fixation, the stomach was cut open along greater curvature and maximum length of each lesion was measured. The sum of lesion length was defined as the lesion index. Compounds were given orally 30 minutes before administration of HCl-ethanol. Potencies of compounds were expressed with ED50, the dose required for 50% inhibition of lesion index.

[5] = iv, I.V., 2 minutes before vasopressin 0.2 IU/kg, read-out: I.V. MED (antianginal effect)
[6] = po, P.O., 30 minutes before vasopressin 0.2 IU/kg, read-out: P.O. MED (antianginal effect)

Row | In Vitro IC50 (platelet aggregation) (platelet aggregation [1]) [µg/mL] | IC50 (platelet aggregation [1]) [µg/mL] | Compound | minimal effective dose (platelet aggregation [2]) [µg/kg] | minimal effective dose [3, 5] [µg/kg] | minimal effective dose [3, 6] [µg/kg] | ED50 [4] [µg/kg]
1 | 0.0145 |  | CCCCCC(O)C=CC1C(O)CC(=O)C1CC(F)CCCCC(=O)O (single isomer, unassigned; ent-6) [APG - 23, 8-ent-6-fluoro-PGE1] |  |  |  | 
2 |  | 0.0127 (≈ 0.0317 µM) | CCCC[C@H](C)C[C@H](O)/C=C/[C@H]1[C@H](O)CC(=O)[C@H]1CC(F)CCCCC(=O)O (single isomer, unassigned; ent-17) [APG - 25] | 3000 | 1 | 0.1 | 
3 |  | 0.52 (≈ 1.4 µM) | CCCCC[C@H](O)/C=C/[C@H]1[C@H](O)CC(=O)[C@@H]1/C=C(/F)CCCCC(=O)O [APG - 2, (6E)-Δ^6-6-fluoro-PGE1] |  |  |  | 
4 |  | 0.49 (≈ 1.32 µM) | CCCCC[C@H](O)/C=C/[C@H]1[C@H](O)CC(=O)[C@@H]1C/C(F)=C\CCCC(=O)O [APG - 5, 6-fluoro-PGE2] |  |  |  | 
5 |  | 0.655 (≈ 1.7 µM) | CCCCC[C@H](O)/C=C/[C@H]1[C@H](O)CC(=O)[C@@H]1C/C(F)=C\CCCC(=O)OC [APG - 7, 6-fluoro-PGE2 methyl ester] |  |  |  | 
6 |  | 0.1 (≈ 0.268 µM) | CCCCC[C@H](O)/C=C/[C@H]1[C@H](O)CC(=O)[C@@H]1CC(F)CCCCC(=O)O (stereo partly drawn) [APG - 21, 6-fluoro-PGE1] |  |  |  | 
7 |  | 0.0059 (≈ 0.0147 µM) | CCCC[C@H](C)C[C@H](O)/C=C/[C@H]1[C@H](O)CC(=O)[C@@H]1CC(F)CCCCC(=O)O (stereo partly drawn) [APG - 24, (17S)-17,20-dimethyl-6-fluoro-PGE1] | 300 | 10 | 0.1 | 
8 |  | 0.0427 (≈ 0.107 µM) | CCCC[C@H](C)C[C@H](O)/C=C/[C@H]1[C@H](O)CC(=O)[C@@H]1C/C(F)=C\CCCC(=O)O [APG - 27, (17S)-17,20-dimethyl-6-fluoro-PGE2] |  |  |  | 3.4
9 |  | 0.00233 (≈ 0.00585 µM) | CCCC[C@H](C)C[C@H](O)/C=C/[C@H]1[C@H](O)CC(=O)[C@@H]1CC(F)CC/C=C/C(=O)O (stereo partly drawn) [APG - 29, Δ^2-(17S)-17,20-dimethyl-6-fluoro-PGE1] | 100 |  | 0.1 | 1.8
10 |  | 0.00105 (≈ 0.00263 µM) | CCCC[C@H](C)C[C@H](O)/C=C/[C@H]1[C@H](O)CC(=O)[C@H]1CC(F)CC/C=C/C(=O)O (stereo partly drawn) [APG - 30, (17S)-8-ent-Δ^2-17,20-dimethyl-6-fuoro-PGE1] | 1000 |  |  | 
